# Experimental data from patent US20220267374A1, “IMMUNITY INDUCER AND PHARMACEUTICAL COMPOSITION FOR PREVENTING OR TREATING AGING-RELATED DISEASES” (priority 2019, published 2022).
# Ends that are not written are not given here.
# How the values were obtained:
# [1] = Survival curve (Kaplan-Meier); format: in vivo, Zmpste24 KO mice; conditions: normal diet, s.c. vaccination at 10 weeks of age; regardless of gender; FIG. 2M
# Protocol: In addition, Zmpste24-deficient (KO) mice (model of Hutchinson-Gilford progeria syndrome, MGI: 2158363) were used as a model of premature aging mice. Generation and genotyping of Zmpste24 KO mice followed the previous report (http://www.informatics.jax.org/allele/MGI:2158363).
# Zmpste24 KO mice were bred on normal diet. For some Zmpste24 KO mice, peptide vaccine 1 was administered by subcutaneous injection at a time point of 10 weeks of age (about 50 weeks of age in C57BL/6 mice). Survival curves were calculated by the Kaplan-Meier method and compared by a log-rank test (refer to FIG. 2M).
# GPNMB-positive cells = assay: Gpnmb-dependent luciferase activity in the aorta; format: in vivo, ApoE/Gpnmb-DTR mice; conditions: HFD from 4 to 16 weeks of age, s.c. vaccination at 8 weeks of age; vs control vaccine; FIG. 2J
# Protocol: Gpnmb-DTR mouse bred by feeding normal diet or HFD for 4 weeks, and Gpnmb-DTR mouse bred by feeding HFD for 4 weeks, and then injecting DT (50 μg/kg body weight) at 2-week intervals (12 weeks of age and 14 weeks of age) intraperitoneally twice while continuing to feed HFD (16 weeks of age) were subjected to in vivo luciferase imaging analysis using the IVIS imaging system (Perkin Elmer). Mice were shaved ventrally, anesthetized with isoflurane (Wako Pure Chemicals Industries), and injected intraperitoneally with luciferin (150 mg/kg body weight) according to the manufacturer's instructions (Vivo-Glo; Promega). Luciferase activity was monitored 5 minutes after luciferin administration. Signals were analyzed using Living Image software (Perkin Elmer) to quantify luciferase activity. […]
# (§1) Detection of arteriosclerotic plaque and analysis of Gpnmb-dependent luciferase activity were performed using the same method as in “6.” and “2.” of Reference Example 1, except that ApoE/Gpnmb-DTR mice (16 weeks of age) bred while feeding HFD for 12 weeks from 4 to 16 weeks of age and administered with peptide vaccine 1 or a control vaccine by subcutaneous injection at a time point of 8 weeks of age were used (refer to FIG. 2J). The Oil Red O stained region was quantified by Image-J software (refer to FIG. 2K). […]
# [2] = Metabolic test (glucose tolerance test and insulin tolerance test); format: in vivo, C57BL/6 mice; conditions: HFD-fed mice, 16 weeks of age, s.c. vaccination at 8 weeks of age; compared to control vaccine; FIG. 2I
# Protocol: Mice were bred individually from 1 week before the test. On the day of the glucose tolerance test (GTT), mice were fasted for 6 hours, followed by intraperitoneal injection of glucose at a dose of 1 g/kg (body weight) in the early afternoon. For the insulin tolerance test (ITT), mice were intraperitoneally administered with human insulin (1 U/kg (body weight)). After administration of glucose or insulin, tail venous blood was collected 0, 15, 30, 60 and 120 minutes later, and the blood glucose level was measured with a glucose analyzer (Sanwa Chemical Research Institute).
# A metabolic test was performed using the same method as in “5.” of Reference Example 1, except that C57BL/6 mice (16 weeks of age) bred by feeding HFD from 4 weeks of age and administered with peptide vaccine 1, peptide vaccine 2, or control vaccine by subcutaneous injection at a time point of 8 weeks of age were used. In FIG. 2I, “Cont vaccine” is a C57BL/6 mouse administered with a control vaccine, “Gpnmb vaccine 1” is a C57BL/6 mouse administered with peptide vaccine 1, and “Gpnmb vaccine 2” is a C57BL/6 mouse administered with peptide vaccine 2.
# [3] = test system: Gpnmb, Cdkn1a, and Cdkn2a; assay: RNA analysis (qPCR) of adipose tissue; format: in vivo, C57BL/6 mice; conditions: HFD-fed mice, 16 weeks of age, s.c. vaccination at 8 weeks of age, FIG. 2C
# Protocol: Total RNA (1 μg) was isolated from adipose tissue samples using RNA-Bee (TEL-TEST Inc.). Real-time PCR (qPCR) was performed using a Light Cycler 480 (Roche) equipped with a universal probe library and a Light Cycler 480 probe master (Roche) according to the manufacturer's instructions. Rplp0 was used as an internal control.
# RNA analysis of Gpnmb, Cdkn1a, and Cdkn2a was performed using the same method as in “4.” of Reference Example 1, except that adipose tissue collected from C57BL/6 mice (16 weeks of age) bred by feeding HFD from 4 weeks of age and administered with peptide vaccine 1 or a control vaccine by subcutaneous injection at a time point of 8 weeks of age was used. In FIG. 2C, “Cont vac” is a C57BL/6 mouse administered with a control vaccine, and “Gpnmb vac” is a C57BL/6 mouse administered with peptide vaccine 1.
# arteriosclerotic plaque = assay: Detection of arteriosclerotic plaque (Oil Red O staining); format: in vivo, ApoE/Gpnmb-DTR mice; conditions: HFD from 4 to 16 weeks of age, s.c. vaccination at 8 weeks of age; vs control vaccine; FIGS. 2J, 2K
# Protocol: Arteriosclerotic plaques were detected by Oil Red O staining. Briefly, autopsy removed adventitial fat to open the entire aorta and fixed the aorta flat in 4 v/v % paraformaldehyde at room temperature for 12 hours. Subsequently, the fixed aorta was washed by immersing in 60 v/v % isopropyl alcohol for 1 minute. Subsequently, the aorta was incubated at 37° C. for 15 minutes in 0.5% of Oil Red O (Sigma-Aldrich) solution (diluted with 60 v/v % isopropyl alcohol). After staining, the sample was briefly immersed in a 60 v/v % isopropyl alcohol solution and then washed with double distilled water. Atherosclerotic lesions were stained red with Oil Red O (refer to FIG. 1G). For the Oil Red O stained region, the plaque region was quantified by Image-J software (refer to FIG. 1H). […]
# as §1
sequence,measurement,setting,value
"RRGDGRWKD (also: KLH conjugate; listed as Mus musculus) [peptide vaccine 1, peptide of positions 63 to 71 of mouse GPNMB protein]",lifespan (survival curve),[1],extended
same,Gpnmb-dependent luciferase activity in the aorta,GPNMB-positive cells,decreased
same,metabolic abnormality induced by HFD intake (glucose tolerance test and insulin tolerance test),[2],significantly improved
same,expression of Cdkn1a,[3],downregulation
same,expression of Cdkn2a,[3],downregulation
same,"development of atheroma (arteriosclerotic plaque, Oil Red O stained region)",arteriosclerotic plaque,significantly decreased
